# Like-named read-outs stand apart in the source and are kept apart here.
# Columns and labels:
# [1] = tested on: phospho-akt (Thr308) in PC-3 cells; assay: Inhibition of phospho-akt (Thr308) in PC-3 cells, MSD phospho-akt 308 ELISA kit; assay type: cell-based; conditions: Homo sapiens, inhibition of P308 Akt in PC-3 cells using MSD, 2 hours, no serum, read-out: EC50
# Summary of the method: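 Read-out is MSD electrochemiluminescence of Akt phosphorylated at Thr308 in lysates of PC-3 cells treated 2 h with compound in serum-free medium. Wortmannin at 5 μM defined the low control and DMSO the high control.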
# [2] = biological target: PDK1 (Homo sapiens (Human), UniProt O15530); assay: PDK1 kinase assay (coupled PDK1/AKT/FAM-crosstide assay, IMAP fluorescence polarization); assay type: biochemical; conditions: inhibition of PDK1 in vitro
# Summary of the method: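 PDK1 activity is measured indirectly through activation of a PIFtide-fused AKT2 construct that phosphorylates FAM-crosstide (100 nM). The reaction uses 0.75 nM PDK1, 40 μM ATP, 30 min, 25° C, with IMAP polarization detection.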
# Sequence of PDK1 (O15530 51-359): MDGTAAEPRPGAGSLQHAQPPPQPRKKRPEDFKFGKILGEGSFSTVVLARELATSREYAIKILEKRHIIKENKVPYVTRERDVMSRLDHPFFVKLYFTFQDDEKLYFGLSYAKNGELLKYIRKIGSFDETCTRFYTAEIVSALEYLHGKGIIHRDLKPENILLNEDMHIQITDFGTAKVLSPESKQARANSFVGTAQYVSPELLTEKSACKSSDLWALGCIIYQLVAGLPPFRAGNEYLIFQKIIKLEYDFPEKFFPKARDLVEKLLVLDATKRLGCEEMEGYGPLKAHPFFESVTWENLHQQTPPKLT
Compound,EC50 [1] [nM],IC50 [2] [nM],"EC50 ([1]; PC-3, 2 h) [nM]"
"C[C@H](NC(=O)c1cc(C#N)cnc1NCc1ccc(-c2ccc(NCCN(C)C)nc2)cc1)c1ccc(F)cc1 [Example 224, 5-Cyano-2-{4-[6-(2-dimethylamino-ethylamino)-pyridin-3-yl]-benzylamino}-N-[(S)-1-(4-fluoro-phenyl)-ethyl]-nicotinamide]",> 10000,> 5000,–
"C[C@H](NC(=O)c1cc(C#N)cnc1NCc1ccc(-c2cnc(NCCCN(C)C)cn2)cc1)c1ccc(F)cc1 [Example 225, 5-Cyano-2-{4-[5-(3-dimethylamino-propylamino)-pyrazin-2-yl]-benzylamino}-N-[(S)-1-(4-fluoro-phenyl)-ethyl]-nicotinamide]",> 10000,> 5000,–
"C[C@H](NC(=O)c1cc(C#N)cnc1NCc1ccc(-c2cnc(NCCN(C)C)cn2)cc1)c1ccc(F)cc1 [Example 226, 5-Cyano-2-{4-[5-(2-dimethylamino-ethylamino)-pyrazin-2-yl]-benzylamino}-N-[(S)-1-(4-fluoro-phenyl)-ethyl]-nicotinamide]",> 10000,> 5000,–
"C[C@H](NC(=O)c1cc(C#N)cnc1NCc1ccc(-c2cnc(NCCO)cn2)cc1)c1ccc(F)cc1 [Example 227, 5-Cyano-N-[(S)-1-(4-fluoro-phenyl)-ethyl]-2-{4-[5-(2-hydroxy-ethylamino)-pyrazin-2-yl]-benzylamino}-nicotinamide]",1000 to 10000,100 to 1000,–
"COCCCNc1cnc(-c2ccc(CNc3ncc(C#N)cc3C(=O)N[C@@H](C)c3ccc(F)cc3)cc2)cn1 [Example 228, 5-Cyano-N-[(S)-1-(4-fluoro-phenyl)-ethyl]-2-{4-[5-(3-methoxy-propylamino)-pyrazin-2-yl]-benzylamino}-nicotinamide]",> 10000,1000 to 5000,–
"O=C(NCc1ccc(F)c(F)c1)c1cc(C(F)(F)F)cnc1NCc1ccc(-c2cnc(NCCO)cn2)cc1 [Example 229, N-(3,4-difluorobenzyl)-2-(4-(5-(2-hydroxyethylamino)pyrazin-2-yl)benzylamino)-5-(trifluoromethyl)nicotinamide]",1000 to 10000,100 to 1000,–
"C[C@H](NC(=O)c1nc(C#N)cnc1NCc1ccc(-c2cnc(NCCO)cn2)cc1)c1ccc(F)c(F)c1 [Example 230, 6-Cyano-3-{4-[5-(2-hydroxy-ethylamino)-pyrazin-2-yl]-benzylamino}-pyrazine-2-carboxylic acid [(S)-1-(3,4-difluoro-phenyl)-ethyl]-amide]",1000 to 10000,< 100,–
"O=C(NCc1ccc(F)c(F)c1)c1cc(C(F)(F)F)cnc1NCc1ccc(-c2cnc(NCCCO)cn2)cc1 [Example 231, N-(3,4-Difluoro-benzyl)-2-{4-[5-(3-hydroxy-propylamino)-pyrazin-2-yl]-benzylamino}-5-trifluoromethyl-nicotinamide]",–,100 to 1000,1000 to 10000
"C[C@H](NC(=O)c1cc(C#N)cnc1NCc1ccc(-c2cnc(N)c(C3=CCNCC3)n2)cc1)c1ccc(F)cc1 [Example 233, 2-{4-[5-Amino-6-(1,2,3,6-tetrahydro-pyridin-4-yl)-pyrazin-2-yl]-benzylamino}-5-cyano-N-[(S)-1-(4-fluoro-phenyl)-ethyl]-nicotinamide]",< 1000,< 100,–
"C[C@H](NC(=O)c1cc(C#N)cnc1NCc1ccc(-c2cnc(N)c(-c3cccc(O)c3)n2)cc1)c1ccc(F)cc1 [Example 234, 2-{4-[5-Amino-6-(3-hydroxy-phenyl)-pyrazin-2-yl]-benzylamino}-5-cyano-N-[(S)-1-(4-fluoro-phenyl)-ethyl]-nicotinamide]",–,< 100,1000 to 10000
"C[C@H](NC(=O)c1nc(C#N)cnc1NCc1ccc(-c2cnc(N)c(-c3cccc(O)c3)n2)cc1)c1ccc(F)c(F)c1 [Example 235, 3-{4-[5-Amino-6-(3-hydroxy-phenyl)-pyrazin-2-yl]-benzylamino}-6-cyano-pyrazine-2-carboxylic acid [(S)-1-(3,4-difluoro-phenyl)-ethyl]-amide]",1000 to 10000,< 100,–
"Nc1ncc(-c2ccc(CNc3ncc(C(F)(F)F)cc3C(=O)Nc3ccc(F)cc3)cc2)nc1-c1cccc(O)c1 [Example 236, 2-{4-[5-Amino-6-(3-hydroxy-phenyl)-pyrazin-2-yl]-benzylamino}-N-(4-fluoro-phenyl)-5-trifluoromethyl-nicotinamide]",1000 to 10000,< 100,–
"C[C@H](NC(=O)c1cc(C#N)cnc1NCc1ccc(-c2cnc(N)c(-c3cccc(N)c3)n2)cc1)c1ccc(F)cc1 [Example 237, 2-{4-[5-Amino-6-(3-amino-phenyl)-pyrazin-2-yl]-benzylamino}-5-cyano-N-[(S)-1-(4-fluoro-phenyl)-ethyl]-nicotinamide]",< 1000,< 100,–
"C[C@H](NC(=O)c1nc(C#N)cnc1NCc1ccc(-c2cnc(N)c(-c3cccc(N)c3)n2)cc1)c1ccc(F)c(F)c1 [Example 238, 3-{4-[5-Amino-6-(3-amino-phenyl)-pyrazin-2-yl]-benzylamino}-6-cyano-pyrazine-2-carboxylic acid [(S)-1-(3,4-difluoro-phenyl)-ethyl]-amide]",< 1000,< 100,–
"Nc1cccc(-c2nc(-c3ccc(CNc4ncc(C(F)(F)F)cc4C(=O)Nc4ccc(F)cc4)cc3)cnc2N)c1 [Example 239, 2-{4-[5-Amino-6-(3-amino-phenyl)-pyrazin-2-yl]-benzylamino}-N-(4-fluoro-phenyl)-5-trifluoromethyl-nicotinamide]",1000 to 10000,< 100,–
"C[C@H](NC(=O)c1cc(C#N)cnc1NCc1ccc(-c2cnc(N)c(CO)n2)cc1)c1ccc(F)cc1 [Example 240, (S)-2-(4-(5-amino-6-(hydroxymethyl)pyrazin-2-yl)benzylamino)-5-cyano-N-(1-(4-fluorophenyl)ethyl)nicotinamide]",< 1000,< 100,–
"C[C@H](NC(=O)c1cc(C#N)cnc1NCc1ccc(-c2cnc(N)c(NCC(O)CO)n2)cc1)c1ccc(F)cc1 (stereo partly drawn) [Example 243, 2-{4-[5-Amino-6-(2,3-dihydroxy-propylamino)-pyrazin-2-yl]-benzylamino}-5-cyano-N-[(S)-1-(4-fluoro-phenyl)-ethyl]-nicotinamide]",< 1000,< 100,–

# Further lines, results first:
EC50 [1] [nM],IC50 [2] [nM],"EC50 ([1]; PC-3, 2 h) [nM]",Compound
< 1000,< 100,–,"C[C@H](NC(=O)c1nc(C#N)cnc1NCc1ccc(-c2cnc(N)c(NCC(O)CO)n2)cc1)c1ccc(F)c(F)c1 (stereo partly drawn) [Example 244, 3-{4-[5-Amino-6-(2,3-dihydroxy-propylamino)-pyrazin-2-yl]-benzylamino}-6-cyano-pyrazine-2-carboxylic acid [(S)-1-(3,4-difluoro-phenyl)-ethyl]-amide]"
< 1000,< 100,–,"Nc1ncc(-c2ccc(CNc3ncc(C(F)(F)F)cc3C(=O)Nc3ccc(F)cc3)cc2)nc1NCC(O)CO (stereo not shown) [Example 245, 2-{4-[5-Amino-6-(2,3-dihydroxy-propylamino)-pyrazin-2-yl]-benzylamino}-N-(4-fluoro-phenyl)-5-trifluoromethyl-nicotinamide]"
< 1000,< 100,–,"C[C@H](NC(=O)c1cc(C(F)(F)F)cnc1NCc1ccc(-c2cnc3[nH]ncc3c2)cc1)c1ccc(F)cc1 [Example 246, N-[(S)-1-(4-Fluoro-phenyl)-ethyl]-2-[4-(1H-pyrazolo[3,4-b]pyridin-5-yl)-benzylamino]-5-trifluoromethyl-nicotinamide]"
> 10000,< 100,–,"N#Cc1ccc(NCc2ccc(-c3ccc4ncnc(N)c4c3)s2)c(C(=O)NCc2ccc(F)c(F)c2)c1 [Example 247, 2-(((5-(4-aminoquinazolin-6-yl)thiophen-2-yl)methyl)amino)-5-cyano-N-(3,4-difluorobenzyl)benzamide]"
< 1000,< 100,–,"C[C@H](NC(=O)c1cc(C2=CCOC2)cnc1NCc1ccc(-c2cn(C)c3ncnc(N)c23)cc1)c1ccc(F)cc1 [Example 248, (S)-2-(4-(4-amino-7-methyl-7H-pyrrolo[2,3-d]pyrimidin-5-yl)benzylamino)-5-(2,5-dihydrofuran-3-yl)-N-(1-(4-fluorophenyl)ethyl) nicotinamide]"
> 10000,> 5000,–,"C[C@H](NC(=O)c1cc(C#N)cnc1NCC#Cc1cnc2[nH]ncc2c1)c1ccc(F)cc1 [Example 249, (S)-2-(3-(1H-pyrazolo[3,4-b]pyridin-5-yl)prop-2-ynylamino)-5-cyano-N-(1-(4-fluorophenyl)ethyl)nicotinamide]"
< 1000,< 100,–,"CNc1ncc2cc(OCCNc3ncc(C#N)cc3C(=O)N[C@@H](C)c3ccc(F)cc3)ccc2n1 [Example 250, (S)-5-cyano-N-(1-(4-fluorophenyl)ethyl)-2-(2-(2-(methylamino)quinazolin-6-yloxy)ethylamino)nicotinamide]"
1000 to 10000,> 5000,–,"CNc1ncc2cc(O[C@H](C)CNc3ncc(C#N)cc3C(=O)N[C@@H](C)c3ccc(F)cc3)ccc2n1 [Example 251, 5-cyano-N-((S)-1-(4-fluorophenyl)ethyl)-2-((R)-2-(2-(methylamino)quinazolin-6-yloxy)propylamino)nicotinamide]"
–,100 to 1000,1000 to 10000,"CNc1ncc2cc(O[C@H](C)CNc3ncc(C#N)nc3C(=O)N[C@@H](C)c3ccc(F)c(F)c3)ccc2n1 [Example 252, 6-cyano-N-((S)-1-(3,4-difluorophenyl)ethyl)-3-((R)-2-(2-(methylamino)quinazolin-6-yloxy)propylamino)pyrazine-2-carboxamide]"

# From patent US10030016B2 (Sunesis Pharmaceuticals, Inc., priority 2009, dated 2018)
